Experimental findings from PMC3188562, “Hyperforin Inhibits Akt1 Kinase Activity and Promotes Caspase-Mediated Apoptosis Involving Bad and Noxa Activation in Human Myeloid Tumor Cells” (PLoS ONE, 2011) are described below.

This assay concerns the target Akt1 (Homo sapiens, UniProt P31749).

Sequence of Akt1 (P31749 whole entry): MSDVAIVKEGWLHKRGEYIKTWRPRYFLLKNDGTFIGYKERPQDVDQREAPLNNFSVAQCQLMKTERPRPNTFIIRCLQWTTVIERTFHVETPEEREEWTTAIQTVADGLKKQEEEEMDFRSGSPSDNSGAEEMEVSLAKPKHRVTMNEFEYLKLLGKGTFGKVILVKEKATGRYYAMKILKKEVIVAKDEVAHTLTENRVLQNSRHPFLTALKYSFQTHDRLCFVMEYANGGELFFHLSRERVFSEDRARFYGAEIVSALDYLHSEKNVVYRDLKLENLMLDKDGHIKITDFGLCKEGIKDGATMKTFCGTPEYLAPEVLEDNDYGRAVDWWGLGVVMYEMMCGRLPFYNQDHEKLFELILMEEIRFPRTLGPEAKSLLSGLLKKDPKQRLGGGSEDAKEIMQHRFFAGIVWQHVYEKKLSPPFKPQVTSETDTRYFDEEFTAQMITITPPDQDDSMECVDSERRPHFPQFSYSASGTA

`CC(C)=CCCC1(C)C(CC=C(C)C)CC2(CC=C(C)C)C(=O)C(CC=C(C)C)=C(O)C1(C(=O)C(C)C)C2=O` (stereo not drawn) [HF, 5-hydroxy-6R-methyl-1R,3,7S-tris(3-methyl-2-butenyl)-5S-(2-methyl-1-oxopropyl)-6R-(4-methyl-3-pentenyl)-bicyclo[3.3.1]non-3-ene-2,9 dione] displayed an IC50 of 2.5 µM.
